Source: publication PMC3341351, “Down-Regulation of GABAA Receptor via Promiscuity with the Vasoactive Peptide Urotensin II Receptor. Potential Involvement in Astrocyte Plasticity” (PLoS ONE, 2012)

How the values were obtained:
Type in all cases: cell-based
[1] = tested on: α2β3γ1 GABAAR co-expressed with human UT; assay: Patch-clamp of Iso-evoked current in CHO-UT expressing α2β3γ1 GABAAR; conditions: hUII 10^−13 to 10^−7 M; Iso 10^−4 M, 2 s; −60 mV
Description: (§1) CHO-K1 cell lines were obtained from American Type Culture Collection (Manassas, VA, USA). The human UT stable CHO (CHO-UT) was generously provided by Dr Christophe Dubessy (Inserm, Rouen University, France) et generated by CHO electroporation with 20 µg pIRES-neo2-UT DNA and 500 µg sterile sonicated salmon sperm DNA using the EasyJect One electroporation system (Equibio, Angleur, Belgium), followed by repetitive rounds of limiting dilution of cells in G-418 (400 µg/ml) for selection. Normal or stable CHO was grown in Ham-F12 medium supplemented with 10% FBS, 1% antibiotic-antimicotic solution and 2 mM glutamine, at 37°C in a humidified incubator with an atmosphere of 5% CO2. The stable CHO-UT medium was supplemented with the antibiotic G-418 (40 µg/ml).
(§2) For transfection, cells were trypsinized (0.05%), triturated in HamF-12 containing 10% FBS media, pelleted by centrifugation, resuspended in 100 µl solution V for nucleofection by an Amaxa Nucleofector Device (Köln, Germany; set to program U-016). Experiments were performed on normal CHO or on the stable CHO-UT cells and transiently transfected with combinations of cDNA encoding α2β3γ2, α2β3γ1, α2β1γ2, α2β3γ1, α2β3, β3γ2 (4 µg of cDNA total/transfection) GABAAR subunits. Cells were seeded on 14-mm poly-L-lysine-coated glass bottom insert dishes at 5×10^5 cells in a volume of 0.5 ml/dish. […]

[2] = tested on: α2β1γ1 GABAAR co-expressed with human UT; assay: Patch-clamp of Iso-evoked current in CHO-UT expressing α2β1γ1 GABAAR; conditions: hUII 10^−13 to 10^−7 M; Iso 10^−4 M, 2 s; −60 mV
Description: as §1, §2

[3] = tested on: γ2^HA GABAAR subunit; assay: Cell surface ELISA of γ2^HA GABAAR subunit in CHO-UT^c-myc-α2β3γ2^HA; conditions: hUII 10^−8 M, 30 min, 37°C, 5 to 7 independent experiments in triplicates
Description: Cells were plated at 50 000 cells/well in 96-well plates coated with 0.1 mg/ml poly-L-ornithine (Sigma-Aldrich). […] Cells were fixed with 4% PFA in PBS for 5 min at RT, washed in PBS, and then permeabilized in 0.05% triton X100 (only for permeabilized cells) and non specific binding were blocked with PBS containing 1% FBS for 30 min at RT. The first rat anti-HA monoclonal antibody (0.5 µg/ml, 3F10 clone, Roche, Meylan, France or 1 µg/ml, Santa-Cruz), mouse anti-c-myc monoclonal antibody (1.33 µg/ml, 9E10 clone, Roche), rabbit anti-UT antibody (1 µg/ml, Tebu, Santa-Cruz) or rabbit anti-β3 antibody (1∶200, Abcam, Paris, France), were added for 1 h30 at RT. Incubation with goat anti-rat (Thermo scientific, Fisher, Brebières, France), goat anti-mouse (Santa Cruz) or goat anti-rabbit (Tebu, Santa Cruz) conjugated alkaline phosphatase diluted at 1∶1000 in PBS/FBS was carried out for 30 min at RT. The cells were washed four times with PBS, a colorimetric alkaline phosphatase substrate was added (SuperSignal ELISA, Thermo scientific, Fisher) and the resulting color reaction was measured using a Viktor multilabel plate reader (PerkinElmer, Courtaboeuf, France). Background absorbance from samples transfected with non-tagged receptors or from cells without first antibodies were systematically measured. […] All experiments were done at least three times in triplicates.

Question: For “ETPDCFWKYCV (disulfide) [hUII, human urotensin II, synthesized by solid phase methodology]”, which “Inhibitory effect on Iso-evoked current, α2β3γ1” value [1] is on record?
Answer: Its value is “less effective”.

Question: What about the “Inhibitory effect on Iso-evoked current, α2β1γ1” value [2] of the same sequence?
Answer: The value was “less effective”.

Question: And the “Loss of γ2^HA subunit from the cell surface” value [3]?
Answer: Its value is “approximately 40%”.
